# Reference: publication PMC9115112, “A2B adenosine receptor antagonists rescue lymphocyte activity in adenosine-producing patient-derived cancer models” (Journal for Immunotherapy of Cancer, 2022)
# Experiments:
# [1] = system: autologous TILs and patient-derived sarcoma spheroids; assay: Spheroid infiltration by autologous TILs (real-time imaging and flow cytometry); assay type: cell-based, human; conditions: antagonist 12 µM, 3 days
# Protocol: Spheroids were prepared using patient-derived sarcoma cell lines. 1×10^4 cells were seeded per well in 96-well ultra-low attachment plate with DMEM-F12 media containing 20% FBS and 1% PS for 5 days. 3×10^4 CSFE-labeled autologous expanded TILs, at Effector:target ratio of 3:1, were added to the spheroid at day five with A2BAR antagonism treatment at 12 µM. After 3 days, spheroid was removed and split into two groups—IN and OUT. […] Spheroids were washed with PBS at least two times. GentleMACS tumor dissociation kit (Miltenyi Biotec) was used to digest the spheroids for FC analysis.
# Brightfield and phase contrast images under 4X objective were acquired every 6 hours on IncuCyte S3 system (Essen BioScience). For breast cancer patient-derived spheroid culture, 1×10^4 cells per well were seeded with A2BAR antagonist at 12 µM treatment for 6 days real time imaging. For spheroid infiltration, after the addition of CSFE-labeled autologous expanded TILs and treatment with A2BAR antagonist at 12 µM, green fluorescence images were acquired for 3 days. All spheroid invasion analysis was performed using top hat segmentation with IncuCyte software.
# Cell surface was stained with mouse monoclonal antihuman antibodies against CD3, CD4, CD8, CD45RA, CD56 and CD19 listed in online supplemental table 1. Cell surface antibodies and live/dead (L/D) marker were incubated with samples at 4°C for 20 min after washing two times with flow cytometry buffer containing 5% FBS in PBS. For spheroid infiltrated TIL phenotyping, digested IN and OUT spheroids were stained with cell surface marker and analyzed on NovoCyte (ACEA Bioscience) with the use of FlowJo software (Tree Star) by gating single cell based on forward and side scatters. A representative gating strategy for CD8 naïve T cells is shown in online supplemental figure 3A. Compensated flow cytometry standard (FCS) files with only live cells were concatenated for downstream tSNE analysis using the ‘cytofkit’ R package (https://github.com/JinmiaoChenLab/cytofkit).
# Figure 6 Infiltration of TILs into autologous patient-derived sarcoma spheroids after A2BAR antagonist treatment. (A) Representative real-time imaging of spheroid TIL infiltration over 3 days under 4× objective. Green areas demarcate CFSE-labeled TILs infiltrated into the red boundary tumor spheroid. (B) Relative TIL infiltration into autologous spheroids (n=8 donors) measured by flow cytometer. Antagonist 12 µM was added with CSFE-labeled TILs after spheroid formation on day five. (C) Representative flow cytometry plot of CFSE positive TILs in CD73+ tumor spheroid. (D) tSNE analysis and (E) annotated pie chart of TILs within (IN) and outside of (OUT) the spheroids without treatment (n=8 donors, indicated within the pie chart). Wilcoxon Rank Sum test was performed to compare the various IN vs OUT adhesion markers. Expression of (F) CD3 T cells, (G) CD49a+ CD103+ among CD8 T cells and (H) CD69 MFI among CD4 T cells IN and OUT of the spheroids without treatment (n=8 donors). (I) Relative CD8/CD4 TIL ratio IN the spheroids. Differential expression of relative (J–L). CD49a+ CD103+ cells IN the spheroids (n=8 donors) of CD3, CD8, and CD4 TILs. Antagonist 12 µM was added for J–L. Outlier is presented as diamond shape and defined by Tukey’s rule, which is not included in statistical analysis. Box plots with minimum, first quartile, median, third quartile, and maximum are presented. Unpaired and non-parametric statistical analysis—Mann-Whitney test was performed against untreated control with *p<0.05, **p<0.01, ***p<0.001, and ****p<0.0001. CFSE, carboxyfluorescein succinimidyl ester; TIL, tumor infiltrating lymphocyte; tSNE, T-distributed stochastic neighboring embedding. TEXT PRINTED IN THE PICTURE: (C) ISAM-R56A: TILs 13.0 DOUBTS OF THE COPYIST ABOUT THIS PICTURE: Panel C, ISAM-R56A, TILs: the print is small, 13.0 could be 13.8 or 13.6 / Panel C also prints a gate label 'TILs 3.17' for the Untreated control. […]
# human A3AR = biological target: T1, human A3AR (Homo sapiens, UniProt P0DMS8); assay: Radioligand binding, human A3AR ([3H]NECA, transfected HeLa cells); conditions: displacement of [3H]NECA, n=3, racemic mixtures
# T1 construct: expressed in transfected cells; host or cells: HeLa
# T1 sequence (P0DMS8 1-318): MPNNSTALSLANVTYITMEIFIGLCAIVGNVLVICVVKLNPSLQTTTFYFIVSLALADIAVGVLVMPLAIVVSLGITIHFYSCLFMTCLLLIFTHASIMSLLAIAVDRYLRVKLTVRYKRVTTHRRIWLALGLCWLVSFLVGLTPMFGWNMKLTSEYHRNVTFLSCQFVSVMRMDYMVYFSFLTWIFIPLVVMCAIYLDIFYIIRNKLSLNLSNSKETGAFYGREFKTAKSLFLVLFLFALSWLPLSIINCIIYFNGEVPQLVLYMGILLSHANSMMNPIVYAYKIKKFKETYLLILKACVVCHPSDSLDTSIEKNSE
# Protocol: (§1) The affinity and selectivity profiles of the ligands obtained was studied in vitro, radioligand binding assays, at the four human specific ARs subtypes, using experimental protocols previously described.[28–30] All ligands were prepared and tested as racemic mixtures. […] Non-specific binding was determined in the presence of R-PIA 10 µM for A1AR, NECA 50 µM for A2AAR, NECA 400 μΜ for A2BAR and R-PIA 100 μΜ for A3AR.
# human A1AR = biological target: T2, human A1AR (Homo sapiens, UniProt P30542); assay: Radioligand binding, human A1AR ([3H]DPCPX, transfected CHO cells); conditions: displacement of [3H]DPCPX, n=3, racemic mixtures
# T2 construct: expressed in transfected cells; host or cells: CHO
# T2 sequence (P30542 1-326): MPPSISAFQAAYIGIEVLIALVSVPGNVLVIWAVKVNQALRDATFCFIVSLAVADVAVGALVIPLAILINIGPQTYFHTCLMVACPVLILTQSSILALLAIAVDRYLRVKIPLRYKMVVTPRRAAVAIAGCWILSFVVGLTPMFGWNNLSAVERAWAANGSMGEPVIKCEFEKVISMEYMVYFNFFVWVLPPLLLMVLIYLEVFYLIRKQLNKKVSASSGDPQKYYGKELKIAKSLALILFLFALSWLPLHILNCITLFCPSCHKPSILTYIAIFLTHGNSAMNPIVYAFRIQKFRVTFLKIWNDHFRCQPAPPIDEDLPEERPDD
# Protocol: as §1
Compound,TIL infiltration into autologous sarcoma spheroids vs untreated (real-time imaging) ([1]; n=8 donors),Ki hA3 (human A3AR),"Median increased TIL infiltration vs untreated ([1]; n=8 donors, not statistically significant) [%]",Ki hA1 (human A1AR; human CHO cells),Ki (human A3AR; read-out: Ki hA3) [nM],"TIL infiltration into spheroids by flow cytometry (CSFE positive, CD73 negative TILs) [1]","TIL infiltration into autologous sarcoma spheroids vs untreated (real-time imaging) ([1]; n=8 donors, listed as ISAM–R56A)","Ki (human A1AR; transfected CHO cells, read-out: Ki hA1) [nM]"
"CC1=C(C(=O)OC(C)C)C(c2ccco2)n2c(nc3ccccc32)N1 (stereo not drawn) [ISAM-140, isopropyl 4-(furan-2-yl)−2-methyl-1,4-dihydrobenzo[4 5] imidazo[1,2 a]pyrimidine-3-carboxylate]",did not have any effect,–,–,–,–,–,–,–
CC1=C(C(=O)OC(C)C)C(c2ccoc2)n2c(nc3cc(Cl)ccc32)N1 (stereo not drawn) [ISAM-M89A],–,devoid of affinity,7,devoid of affinity,–,–,–,–
CC1=C(C(=O)OC(C)C)C(c2ccco2)n2c(nc3ccccc32)N1Cc1ccccc1F (stereo not drawn) [ISAM-R56A],overall improved TIL infiltration,–,–,–,> 1000,significantly enhanced TIL infiltration,improved TILs infiltration,> 1000
